Values of other authors, collected in US20220166043A1, “NEGATIVE ELECTRODE ELECTROLYTE SOLUTION FOR REDOX FLOW BATTERIES, AND REDOX FLOW BATTERY” (ARM Technologies Co., Ltd., priority 2019, published 2022).
Values joined by “and” are separate entries in the source; they are usually repeats but may differ in a detail not shown here. Identical values can stand only once. Like-named read-outs stand apart in the source and are kept apart here.

Settings: octanol-water partition coefficient of the negative electrode solvent

Row | Molecule | Negative electrode solvent LogP (Log POW) | Negative electrode solvent LogP (Log POW) (listed as PP13 TFSI)
1 | 1-methyl-1-propylpyrrolidinium bis(trifluoromethanesulfonyl)imide | 4.82 | 4.8165
2 | Cc1cnc(C)c(C)n1 [2,3,5-trimethylpyrazine] | 1.402 and 1.40 | –
3 | c1ccc(COCCOCc2ccccc2)cc1 [EGDBE, ethylene glycol dibenzyl ether] | 3.42 | –
4 | COC1CCCC1 [MCP, methoxycyclopentane] | 1.575 and 1.58 | –
